Assay results published in ChEMBL document CHEMBL1201862, “PubChem BioAssay data set” (2004).
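Compound exposure: 48 hours, 5 concentrations, 96-well plates. Here, GI50 denotes the concentration required for 50% inhibition of growth.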 Activity calls are given as the source filed them. Cut-off read from the data, not from the text of the source: active = GI50 up to about 1.1 µM and inactive = higher.

Tests used:
Test in all cases: NCI anticancer screen, dose series, 48 h
DMS-114 = tested on: DMS-114
DMS-273 = tested on: DMS-273
DLD-1 = tested on: DLD-1
LXFL 529 = tested on: LXFL 529
KM-20L2 = tested on: KM-20L2
XF498 = tested on: XF498
HOP-18 = tested on: HOP-18
SNB-78 = tested on: SNB-78
RXF 631 = tested on: RXF 631

Row | Structure (SMILES) | GI50 (DMS-114) | GI50 (DMS-273) | GI50 (DLD-1) | GI50 (LXFL 529) | GI50 (KM-20L2) | GI50 (XF498) | GI50 (HOP-18) | GI50 (SNB-78) | GI50 (RXF 631)
1 | Cc1cn(C2CC(CCCO)C(CO)O2)c(=O)[nH]c1=O (stereo not drawn) | > 100 µM (inactive) | > 100 µM (inactive) | > 100 µM (inactive) | > 100 µM (inactive) | > 100 µM (inactive) | > 100 µM (inactive) | – | – | –
2 | CC(C)C(CCOS(=O)(=O)O)CCC(C)[C@H]1[C@@H](O)C(O)C2[C@]3(O)C[C@@H](O)C4(O)C[C@@H](O)CC[C@]4(C)C3CC[C@@]21C (stereo partly drawn) | > 100 µM (inactive) | > 100 µM (inactive) | > 100 µM (inactive) | > 100 µM (inactive) | > 100 µM (inactive) | > 100 µM (inactive) | > 100 µM (inactive) | > 100 µM (inactive) | –
3 | COc1ccc(CNc2cnc3cc(N)ccc3n2)cc1OC | > 100 µM (inactive) | > 100 µM (inactive) | > 100 µM (inactive) | – | – | – | – | – | –
4 | FC(F)(F)c1ccc2nc(NCc3ccccc3)c(-c3ccccc3)nc2c1 | – | 35.2 µM (inactive) | – | 43.3 µM (inactive) | 29.5 µM (inactive) | 15.1 µM (inactive) | 35.4 µM (inactive) | 38.9 µM (inactive) | –
5 | COc1cc2c3c(c1OC)C(=O)C=C3N(S(=O)(=O)c1ccc(C)cc1)CC2 | > 100 µM (inactive) | > 100 µM (inactive) | > 100 µM (inactive) | > 100 µM (inactive) | > 100 µM (inactive) | 72.9 µM (inactive) | > 100 µM (inactive) | > 100 µM (inactive) | –
6 | O=C(O)/C=C/n1c2ccccc2c(=O)c2ccccc21 | > 100 µM (inactive) | > 100 µM (inactive) | > 100 µM (inactive) | – | > 100 µM (inactive) | > 100 µM (inactive) | – | > 100 µM (inactive) | > 100 µM (inactive)
7 | CCOC(=O)C1C(=O)C(=O)N2CCc3c([nH]c4ccccc34)C12 (stereo not drawn) | > 100 µM (inactive) | – | > 100 µM (inactive) | > 100 µM (inactive) | > 100 µM (inactive) | – | – | – | –
8 | C/C(=N\NC(=S)N1CCCCCC1)c1ccccn1 | < 0.001 µM (active) | < 0.001 µM (active) | < 0.001 µM (active) | < 0.001 µM (active) | < 0.001 µM (active) | 0.0014 µM (active) | 0.123 µM (active) | 0.741 µM (active) | 0.0386 µM (active)
9 | C=C(CN(C)C)C(=O)c1ccc(C)cc1C | 21.6 µM (inactive) | 18.2 µM (inactive) | 3.88 µM (inactive) | 12.5 µM (inactive) | 19.9 µM (inactive) | 12 µM (inactive) | 16 µM (inactive) | 22.9 µM (inactive) | 20.4 µM (inactive)
10 | COc1ccc(/C(Cl)=C(\C=O)c2ccc(Br)cc2)cc1OC | – | > 100 µM (inactive) | > 100 µM (inactive) | > 100 µM (inactive) | > 100 µM (inactive) | 9.33 µM (inactive) | 48.4 µM (inactive) | 25.4 µM (inactive) | > 62.4 µM (inactive)
11 | Cc1ccc(S(=O)(=O)ON/N=C2/C3OC3[C@@H]3CCCC[C@H]23)cc1 (stereo partly drawn) | – | > 100 µM (inactive) | > 100 µM (inactive) | > 100 µM (inactive) | > 100 µM (inactive) | > 100 µM (inactive) | > 100 µM (inactive) | – | –
12 | CC(=O)Nc1ccc(C(=O)NN2C(=O)C(Cl)C2c2ccc([N+](=O)[O-])cc2)cc1 (stereo not drawn) | – | > 100 µM (inactive) | – | > 100 µM (inactive) | > 100 µM (inactive) | > 100 µM (inactive) | – | > 100 µM (inactive) | –
13 | Nc1ncnc2c1ncn2C1OC(CSC(F)F)C(O)C1O (stereo not drawn) | > 100 µM (inactive) | > 100 µM (inactive) | > 100 µM (inactive) | > 100 µM (inactive) | > 100 µM (inactive) | – | > 100 µM (inactive) | > 100 µM (inactive) | > 100 µM (inactive)
14 | Nc1ccc(C2=Nc3ccccc3SC(c3ccccc3O)C2)cc1 (stereo not drawn) | 15.7 µM (inactive) | 54.5 µM (inactive) | 34.1 µM (inactive) | 22 µM (inactive) | > 100 µM (inactive) | 16.3 µM (inactive) | > 100 µM (inactive) | – | 68.2 µM (inactive)
15 | OC1CC(O)O[C@H](c2ccccc2)C1 (stereo partly drawn) | – | > 100 µM (inactive) | > 100 µM (inactive) | > 100 µM (inactive) | > 100 µM (inactive) | – | > 100 µM (inactive) | > 100 µM (inactive) | –
16 | C#CCSc1nc(N)c2ncn(C3OC(COP(=O)(O)O)C(O)C3O)c2n1 (stereo not drawn) | – | > 239 µM (inactive) | > 239 µM (inactive) | – | > 239 µM (inactive) | > 239 µM (inactive) | > 239 µM (inactive) | > 239 µM (inactive) | –
17 | CCOC(=O)C1=C(O)C(=O)c2cc(OC)ccc2C1=O | > 100 µM (inactive) | > 100 µM (inactive) | > 100 µM (inactive) | – | > 100 µM (inactive) | – | 4.51 µM (inactive) | > 100 µM (inactive) | –
18 | NC(CCC(=O)NC(CSC(=O)N(O)c1ccccc1)C(=O)NCC(=O)O)C(=O)O (stereo not drawn) | > 1000 µM (inactive) | > 1000 µM (inactive) | > 1000 µM (inactive) | > 1000 µM (inactive) | > 1000 µM (inactive) | – | – | > 1000 µM (inactive) | –
19 | C[C@H]1[C@H](C)CC[C@]2(C(=O)O)CCC3(COC(=O)/C=C/c4ccc(O)cc4)C(=CCC4[C@@]5(C)CC[C@H](O)C(C)(C)C5CC[C@]43C)[C@H]12 (stereo partly drawn) | 3.72 µM (inactive) | 4.76 µM (inactive) | 3.39 µM (inactive) | 3.83 µM (inactive) | 4.83 µM (inactive) | – | 18.3 µM (inactive) | 43.8 µM (inactive) | 7.55 µM (inactive)
20 | Cc1c2cc[n+](C)cc2c(C)c2c1[nH]c1ccc(Oc3ccccc3)cc12 | – | 0.596 µM (active) | 0.906 µM (active) | 0.282 µM (active) | 1.14 µM (inactive) | – | – | – | –
21 | N=c1oc2c(O)c(O)ccc2cc1C(N)=O | 35.4 µM (inactive) | > 100 µM (inactive) | > 100 µM (inactive) | 31.6 µM (inactive) | > 100 µM (inactive) | 25.2 µM (inactive) | – | > 100 µM (inactive) | –
22 | C[N+](C)(C)CC1CCCC1=O (stereo not drawn) | 3.24 µM (inactive) | 6.87 µM (inactive) | 1.01 µM (active) | 1.26 µM (inactive) | 2.61 µM (inactive) | 1.87 µM (inactive) | 1.87 µM (inactive) | 3.24 µM (inactive) | 14.2 µM (inactive)
23 | CC(=O)OC1C[C@H]2C(OC(=O)c3ccccc3)C3C4(OC(C)=O)COC4C[C@H](OC(C)=O)[C@@]3(C)C(OC(C)=O)[C@H](OC(C)=O)C(=C1C)C2(C)C (stereo partly drawn) | 22.2 µM (inactive) | 24.9 µM (inactive) | 32.7 µM (inactive) | 22.3 µM (inactive) | 59 µM (inactive) | 19.8 µM (inactive) | 20.1 µM (inactive) | 37.9 µM (inactive) | –
24 | Cc1cc(C)nc(NS(=O)(=O)c2ccc(Nc3c4ccccc4nc4c(C(=O)N5CCN(CCO)CC5)cccc34)cc2)n1 | > 100 µM (inactive) | > 100 µM (inactive) | > 100 µM (inactive) | > 100 µM (inactive) | > 100 µM (inactive) | > 100 µM (inactive) | > 100 µM (inactive) | > 100 µM (inactive) | –
25 | O=C1c2ccsc2C(=O)c2sc(CO)cc21 | – | 0.0327 µM (active) | 0.176 µM (active) | 0.161 µM (active) | 0.182 µM (active) | 0.352 µM (active) | 0.0349 µM (active) | 0.322 µM (active) | –
26 | CC(C)N(C(=O)C12C3C4C1C1C4(C#N)C3C12C(=O)O)C(C)C (stereo not drawn) | > 100 µM (inactive) | > 100 µM (inactive) | > 100 µM (inactive) | > 100 µM (inactive) | > 100 µM (inactive) | > 100 µM (inactive) | > 100 µM (inactive) | > 100 µM (inactive) | > 100 µM (inactive)
27 | CN(C)CC/C(=N\Nc1c(F)c(F)c(F)c(F)c1F)c1ccccc1 | 25.5 µM (inactive) | 29.2 µM (inactive) | 8.63 µM (inactive) | 42.3 µM (inactive) | 35.6 µM (inactive) | – | 23.6 µM (inactive) | 41.1 µM (inactive) | –
28 | Cc1c(C(=O)c2ccccc2C(=O)O)c2ccccc2n1C | > 100 µM (inactive) | > 100 µM (inactive) | > 100 µM (inactive) | > 100 µM (inactive) | > 100 µM (inactive) | > 100 µM (inactive) | – | > 100 µM (inactive) | –
